Data as given in US8633204B2 (Pfizer Inc., priority 2006, dated 2014).

Assays:
PI3-Kα = PI3-Kα (Mus musculus (Mouse), UniProt P42337); assay: PI3-Kα Biochemical Assay (fluorescence polarization kinase assay)
Description: Compounds of the present invention were evaluated for potency against PI3-Kα using an in vitro kinase assay. PI3-Kα activity is measured in vitro by determining the level of phosphorylation of the substrate PI(4,5)P2. The formation of product PI(3,4,5)P3 is monitored by binding to the Grip1 PH domain in a ligand displacement fluorescence polarization (FP) assay, in which the TAMRA-labeled PI(3,4,5)P3 complexed with Grip1 PH domain is displaced by PI(3,4,5)P3 formed in the PI3-Kα reaction resulting in a decrease in FP signal. Mouse PI3-Kα P110 and P85 subunits were co-expressed in insect cells and co-purified to homogeneity. PI(4,5)P2 were obtained from Cayman. TAMRA-labeled PI(3,4,5)P3 were from Echelon, Grip1 PH domain from Dundee and other reagents were from Sigma.
All assays were performed in a Corning solid black 96-well half area plate using LJL Analyst (Molecular Devices) at room temperature. The assay buffer contained 50 mM HEPES, pH 7.4, 150 mM NaCl, 5 mM DTT, and 0.05% CHAPS. Dry powder PI(4,5)P2 was dissolved in 50 mM TRIS, pH 8 to make 1 mM stock solution. The PI(4,5)P2 stock solution was then diluted in the assay buffer to 60 μM, and sonicated for 30 sec before use. To the assay plate, the following reagents were added in sequence: 10 μL of 60 μM PI(4,5)P2, 5 μL of 4 nM PI3-Kα, 2 μL of compound in 25% DMSO, 3 μL of mixture containing 200 μM ATP and 33 mM MgCl2. The final volume for the reaction was 20 μL. The reaction mixture was incubated at room temperature for 35 min. The reaction was then stopped by 20 μL of 20 mM EDTA. […] The FP signal was allowed to develop for 40 min before reading on a LJL analyst at excitation 535 nm and emission 580 nm.
The percentage of inhibition was calculated based on the following equation % inhibition=[1−(FPcompound−FPmax)/(FPmin−FPmax)]×100, where FPcompound is the FP reading at a given compound concentration, FPmin is the FP signal of the PI3-Kα reaction in the absence of a compound, and FPmax is the background FP signal in the absence of PI3-Kα and a compound. The IC50 was determined by fitting the FP signal vs. compound concentration to a sigmoidal dose response equation using GraphPad Prism curve fitting program.

[1] = test system: PI3-K in BT20 cells (phosphorylation of AKT at serine 473); assay: PI3-Kα Cellular Assay (AKT Ser473 phosphorylation ELISA in BT20 cells); format: cell-based, human; details: Homo sapiens, BT-20, pAKT Ser473 ELISA, 1 hour incubation
Description: Compounds of the present invention were evaluated for potency against PI3-K using a cellular assay as follows.
Healthy growing human breast cancer cells BT20 (PI3K mutated) are used for the assay. BT20 cells are grown in 10% FBS+GLN (1:100)+PS (1:100)+1 mM Sodium Pyruvate+0.1 mM Sodium Bicarbonate+Non-Essential Amino Acids Solution (1:100) MEM medium (MEM+all). […] The cells are re-suspended in 10% FBS MEM all and are centrifuged down at 1400 rpm for 5 minutes. The cells are re-suspended in 0.5% FBS MEM all and are counted on a cell counter. The cells are seeded at 25,000 cells/well in volume of 100 μL/well in 0.5% FBS MEM all in a 96 well flat-bottom plate. The negative control wells receive only 100 μL of 0.5% FBS MEM all medium without cells. The plate is incubated overnight in a cell culture incubator with 5% CO2 at 37° C.
On day 2, testing compounds are prepared in 0.5% FBS MEM all medium and serially diluted at 1:3 for 11 test concentrations. Each concentration of the compounds is tested in duplicate. The compound solutions are added at 25 μL/well to the corresponded wells in cell plate, and 25 μL/well of the vehicle (0.5% DMSO in 0.5% FBS MEM all) is added to the negative control wells (no cells) and the positive control wells (cells without compounds). The plate is incubated for 1 hour in a cell culture incubator with 5% CO2 at 37° C. After 1 hour of incubation, the medium is removed, 100 μL/well of cell lysis buffer is added into the cell plate, and shake for 15 minutes at room temperature. […] After 1 hour, empty the contents of the wells, wash the plate 4 times with the wash buffer, and add 100 μL of TMB substrate solution (catalog #T0440, Sigma) into each well, and incubate with gentle shaking at room temperature for […]. After 15 minutes of color development, add 100 μL of stop solution (1N hydrochloric acid) to each well, and read the plate at 450 nm on ELISA plate reader.

Sequence of PI3-Kα (P42337 whole entry, the tested form may be a part): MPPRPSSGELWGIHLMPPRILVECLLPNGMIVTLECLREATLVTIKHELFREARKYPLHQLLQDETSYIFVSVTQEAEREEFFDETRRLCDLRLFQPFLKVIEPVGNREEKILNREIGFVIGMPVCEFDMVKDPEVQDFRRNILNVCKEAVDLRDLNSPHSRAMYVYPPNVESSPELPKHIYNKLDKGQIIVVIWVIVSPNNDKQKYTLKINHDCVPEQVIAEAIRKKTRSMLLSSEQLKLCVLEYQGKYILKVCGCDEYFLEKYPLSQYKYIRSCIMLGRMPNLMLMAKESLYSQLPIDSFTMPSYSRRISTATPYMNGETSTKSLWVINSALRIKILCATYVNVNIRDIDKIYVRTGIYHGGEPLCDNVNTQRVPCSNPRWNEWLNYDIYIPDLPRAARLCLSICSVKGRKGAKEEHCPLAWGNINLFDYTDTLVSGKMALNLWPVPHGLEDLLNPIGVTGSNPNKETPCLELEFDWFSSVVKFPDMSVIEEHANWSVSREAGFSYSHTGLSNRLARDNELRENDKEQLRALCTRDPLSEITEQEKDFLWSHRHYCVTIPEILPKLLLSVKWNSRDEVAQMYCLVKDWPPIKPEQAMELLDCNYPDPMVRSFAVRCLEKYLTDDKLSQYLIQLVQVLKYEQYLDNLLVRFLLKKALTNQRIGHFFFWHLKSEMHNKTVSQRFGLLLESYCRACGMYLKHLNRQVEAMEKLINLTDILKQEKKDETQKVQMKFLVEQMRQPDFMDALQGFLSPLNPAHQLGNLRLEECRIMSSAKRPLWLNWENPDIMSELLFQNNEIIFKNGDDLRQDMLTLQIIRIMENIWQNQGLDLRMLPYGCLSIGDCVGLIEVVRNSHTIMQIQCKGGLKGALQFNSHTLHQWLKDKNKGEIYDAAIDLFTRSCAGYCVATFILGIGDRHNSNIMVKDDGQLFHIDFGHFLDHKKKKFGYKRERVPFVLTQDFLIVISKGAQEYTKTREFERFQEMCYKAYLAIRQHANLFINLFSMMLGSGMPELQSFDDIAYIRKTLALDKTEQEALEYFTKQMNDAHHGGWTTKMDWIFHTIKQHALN
Sequence of PI3-Kα (P26450 whole entry partner, the tested form may be a part): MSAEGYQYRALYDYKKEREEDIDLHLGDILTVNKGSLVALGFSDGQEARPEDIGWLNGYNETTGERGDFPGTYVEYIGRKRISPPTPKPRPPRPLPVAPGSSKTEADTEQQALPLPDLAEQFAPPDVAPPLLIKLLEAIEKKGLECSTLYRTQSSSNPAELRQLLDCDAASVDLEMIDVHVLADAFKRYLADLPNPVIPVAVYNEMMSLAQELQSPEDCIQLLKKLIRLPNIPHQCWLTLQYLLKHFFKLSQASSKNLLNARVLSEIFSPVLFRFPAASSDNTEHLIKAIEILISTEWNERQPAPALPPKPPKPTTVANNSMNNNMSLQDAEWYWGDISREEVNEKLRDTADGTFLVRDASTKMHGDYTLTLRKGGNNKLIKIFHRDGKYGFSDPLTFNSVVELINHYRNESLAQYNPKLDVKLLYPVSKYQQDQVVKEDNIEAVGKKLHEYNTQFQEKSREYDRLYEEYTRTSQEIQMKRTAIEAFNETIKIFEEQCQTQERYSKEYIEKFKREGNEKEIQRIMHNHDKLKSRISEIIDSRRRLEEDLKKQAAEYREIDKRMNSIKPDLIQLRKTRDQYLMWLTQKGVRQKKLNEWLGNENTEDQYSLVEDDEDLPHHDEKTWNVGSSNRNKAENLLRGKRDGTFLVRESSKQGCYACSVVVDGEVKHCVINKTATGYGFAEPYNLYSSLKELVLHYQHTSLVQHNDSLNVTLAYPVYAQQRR

Row | SMILES | IC50 (PI3-Kα) | IC50 [1] | inhibition at 10 µM (PI3-Kα)
1 | Cc1nc(N)nc2c1cc(-c1cnn(CCO)c1)c(=O)n2C1CCCC1 [Compound 106, 2-Amino-8-cyclopentyl-6-(1-(2-hydroxyethyl)-1H-pyrazol-4-yl)-4-methylpyrido[2,3-d]pyrimidin-7(8H)-one] | 45 nM | 495 nM | –
2 | Cc1nc(N)nc2c1cc(-c1cn[nH]c1)c(=O)n2N1CCCC1 [Compound 193, 2-Amino-4-methyl-6-(1H-pyrazol-4-yl)-8-(pyrrolidin-1-yl)pyrido[2,3-d]pyrimidin-7(8H)-one] | 28 nM | – | –
3 | COc1ccc(-c2cc3c(C)nc(N)nc3n(N3CCCC3)c2=O)cn1 [Compound 195, 2-amino-6-(6-methoxypyridin-3-yl)-4-methyl-8-(pyrrolidin-1-yl)pyrido[2,3-d]pyrimidin-7(8H)-one] | 23 nM | – | –
4 | Cc1nc(N)nc2c1cc(-c1cn[nH]c1)c(=O)n2C1CC1 [Compound 211, 2-amino-8-cyclopropyl-4-methyl-6-(1H-pyrazol-4-yl)pyrido[2,3-d]pyrimidin-7(8H)-one] | 78 nM | – | –
5 | COc1ccc(-c2cc3c(C)nc(N)nc3n(C3CC3)c2=O)cn1 [Compound 212, 2-amino-8-cyclopropyl-6-(6-methoxypyridin-3-yl)-4-methylpyrido[2,3-d]pyrimidin-7(8H)-one] | 56 nM | – | –
6 | COc1ncc(-c2cc3c(C)nc(N)nc3n(C3CCOCC3)c2=O)cc1F [Compound 265, 2-amino-6-(5-fluoro-6-methoxypyridin-3-yl)-4-methyl-8-(tetrahydro-2H-pyran-4-yl)pyrido[2,3-d]pyrimidin-7(8H)-one] | 1.43 nM | – | –
7 | CCn1nccc1NC(=O)c1cc2c(C)nc(N)nc2n(C(C)C)c1=O [Compound 280, 2-amino-N-(1-ethyl-1H-pyrazol-5-yl)-8-isopropyl-4-methyl-7-oxo-7,8-dihydropyrido[2,3-d]pyrimidine-6-carboxamide] | 3.9 nM | – | –
8 | COc1ncc(-c2cc3c(C)nc(N)nc3n([C@H]3CC[C@@H](OCCO)CC3)c2=O)cc1F [Compound 294, 2-amino-6-(5-fluoro-6-methoxypyridin-3-yl)-8-[cis-4-(2-hydroxyethoxy)cyclohexyl]-4-methylpyrido[2,3-d]pyrimidin-7(8H)-one] | 2.6 nM | – | –

More lines, now with the values ahead:

Row | IC50 (PI3-Kα) | IC50 [1] | inhibition at 10 µM (PI3-Kα) | SMILES
9 | 400 nM | 2330 nM | – | CNc1nc(C)c2cc(-c3cnc(N)c(OC[C@H](C)N)n3)c(=O)n(C3CCCC3)c2n1 [Compound 103, 6-(5-amino-6-{[(2S)-2-aminopropyl]oxy}pyrazin-2-yl)-8-cyclopentyl-4-methyl-2-(methylamino)pyrido[2,3-d]pyrimidin-7(8H)-one]
10 | – | 10000 nM | 43% | CNc1nc(C)c2cc(-c3cc(CN)ccc3F)c(=O)n(C3CCCC3)c2n1 [Compound 104, 6-(5-(Aminomethyl)-2-fluorophenyl)-8-cyclopentyl-4-methyl-2-(methylamino)pyrido[2,3-d]pyrimidin-7(8H)-one]
11 | 24 nM | 234 nM | – | CNc1nc(C)c2cc(-c3cnn(CCO)c3)c(=O)n(C3CCCC3)c2n1 [Compound 105, 8-Cyclopentyl-6-(1-(2-hydroxyethyl)-1H-pyrazol-4-yl)-4-methyl-2-(methylamino)pyrido[2,3-d]pyrimidin-7(8H)-one]
12 | 23 nM | 305 nM | – | CNc1nc(C)c2cc(-c3cncnc3)c(=O)n(C3CCCC3)c2n1 [Compound 107, 8-Cyclopentyl-4-methyl-2-(methylamino)-6-(pyrimidin-5-yl)pyrido[2,3-d]pyrimidin-7(8H)-one]
13 | 1.57 nM | 3.82 nM | 99% | CNc1nc(C)c2cc(-c3ccc(O)c(OC)c3)c(=O)n(C3CCCC3)c2n1 [Compound 108, 8-cyclopentyl-6-(4-hydroxy-3-methoxyphenyl)-4-methyl-2-(methylamino)pyrido[2,3-d]pyrimidin-7(8H)-one]
14 | 6.3 nM | 58.4 nM | 99% | CNc1nc(C)c2cc(-c3ccc(OC)nc3)c(=O)n(C3CCC3)c2n1 [Compound 109, 8-Cyclobutyl-6-(6-methoxypyridin-3-yl)-4-methyl-2-(methylamino)pyrido[2,3-d]pyrimidin-7(8H)-one]
